From patent US10792255B2, “Reconstituted apolipoprotein B lipoparticle, a preparation method and uses thereof” (National Chiao Tung University, priority 2013, dated 2020)

What was measured:
A549 cells = test: Functional test of M4N@rABL (cell viability, trypan blue); assay type: cell-based; conditions: 100 μM M4N (20 μg/ml rABL), 24 hrs treatment then 48 hrs culture
Excerpt: After removing the medium, the cells were washed twice with PBS and cultured with serum-containing medium for 48 hrs. The cell viability was observed by a trypan blue staining.

mice = conditions: long-term feeding; cited from earlier work

## COc1ccc(C[C@@H](C)[C@@H](C)Cc2ccc(OC)c(OC)c2)cc1OC [M4N, tetra-O-methyl nordihydroguaiaretic acid]
A549 cells
  cell viability: 40%
mice
  weight changes or mortality: not found any obvious weight changes or mortality
